Columns and labels:
[1] = mouse, in vivo
Text: Pharmacokinetics—Naive female NCr nude (nu/nu) mice, 8-10 weeks old, were purchased from Taconic Farms (Germantown, NY). […] ELISA was utilized to determine serum concentrations of total hRS7 IgG by competing for the binding to an anti-hRS7 IgG idiotype antibody with a horseradish peroxidase conjugate of hRS7. […] Pharmacokinetic (PK) parameters were computed by noncompartmental analysis using Phoenix WinNonlin software (version 6.3; Pharsight Corp., Mountainview, CA).

[2] = system: BxPC-3; experiment: dsDNA breaks, γH2AX induction in BxPC-3; assay type: cell-based, human; conditions: for Mean Fluorescence Intensity, γH2AX: untreated 2516 ± 191
Experimental: Assessment of Double-Stranded DNA Breaks In Vitro—For drug activity testing, BxPC-3 cells were seeded in 6-well plates at 5×10^5 cells/well and held at 37° C. overnight. […] The following morning, cells were trypsinized briefly, spun down, stained with Fixable Viability Stain 450 (BD Biosciences, San Jose, CA), washed with 1% BSA-PBS, and then fixed in 4% formalin for 15 min, washed again and permeabilized in 0.15% Triton-X100 in PBS for another 15 min. After washing twice with 1% BSA-PBS, cells were incubated with mouse anti-γH2AX-AF488 (EMD Millipore Corporation, Temecula, CA) for 45 min at 4° C. The signal intensity of γH2AX was measured by flow cytometry using a BD FACSCanto (BD Biosciences, San Jose, CA).

[3] = system: BxPC-3; experiment: ADCC activity of hRS7-ADC conjugates; assay type: cell-based, human; conditions: 33.3 nM; PBMC effector to target ratio 100:1
Text: PBMCs were purified from blood purchased from the Blood Center of New Jersey. A Trop-2-positive human pancreatic adenocarcinoma cell line (BxPC-3) was used as the target cell line with an effector to target ratio of 100:1.

[4] = system: COLO 205 tumors; experiment: COLO 205 xenograft therapy; assay type: in vivo
Experimental: (§2) NCr female athymic nude (nu/nu) mice, 4 to 8 weeks old, and male Swiss-Webster mice, 10 weeks old, were purchased from Taconic Farms. […] Tumor volume (TV) was determined by measurements in 2 dimensions using calipers, with volumes defined as: L×w^2/2, where L is the longest dimension of the tumor and w is the shortest. […] This dosing frequency reflected a consideration of the conjugate's serum half-life in vitro, to allow a more continuous exposure to the ADC.
(§3) Statistics—Growth curves are shown as percent change in initial TV over time. Statistical analysis of tumor growth was based on area under the curve (AUC). Profiles of individual tumor growth were obtained through linear-curve modeling. An f-test was employed to determine equality of variance between groups before statistical analysis of growth curves. A 2-tailed t-test was used to assess statistical significance between the various treatment groups and controls, except for the saline control, where a 1-tailed t-test was used (significance at P≤0.05). Statistical comparisons of AUC were performed only up to the time that the first animal within a group was euthanized due to progression.

[5] = system: Capan-1; experiment: Combination 90Y-hPAM4 RAIT + ADC, Capan-1 xenograft; assay type: in vivo, mouse
Text: Objective responses occurred in most animals, but they were more robust in both of the combination groups as compared to each agent given alone. […] These studies provide the first evidence that combined radioimmunotherapy and ADC enhances efficacy at safe doses.

[6] = system: SK-MES-1 human squamous cell lung tumors; experiment: SK-MES-1 xenograft therapy; assay type: in vivo; conditions: for tumor volume (TV): 0.4 mg/kg, 28 days
Experimental: as §2, §3

[7] = biological target: T1, recombinant human neonatal receptor (FcRn) (Homo sapiens, UniProt P55899); experiment: Surface plasmon resonance (BIACORE), FcRn; assay type: binding; conditions: low-density FcRn chip, three independent runs
T1 construct: made in house
T1 sequence (P55899 24-297 limits assumed): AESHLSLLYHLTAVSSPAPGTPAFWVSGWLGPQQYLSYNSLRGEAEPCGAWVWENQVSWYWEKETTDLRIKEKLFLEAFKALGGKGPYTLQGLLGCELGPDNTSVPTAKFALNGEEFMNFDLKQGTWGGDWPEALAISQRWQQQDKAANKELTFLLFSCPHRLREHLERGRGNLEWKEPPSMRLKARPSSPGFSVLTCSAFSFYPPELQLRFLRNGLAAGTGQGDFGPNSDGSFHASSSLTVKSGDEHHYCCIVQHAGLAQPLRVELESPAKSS
T1 sequence (P61769 21-119 partner): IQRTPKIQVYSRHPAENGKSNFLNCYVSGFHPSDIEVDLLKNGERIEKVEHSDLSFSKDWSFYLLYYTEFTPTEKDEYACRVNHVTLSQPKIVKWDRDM
Text: (§1) Surface Plasmon Resonance Binding (BIACORE)—Briefly, rhTrop-2/TACSTD2 (Sino Biological, Inc.) or recombinant human neonatal receptor (FcRn), produced as described (Wang et al., 2011, Drug Metab Dispos 39:1469-77), was immobilized with an amine coupling kit (GE Healthcare; Cat. No. BR-1000-50) on a CM5 sensor chip (GE Healthcare; Cat. #BR-1000-12) following manufacturer's instructions for a low-density chip. […] Each set would make up a separate run on the BIACORE (BIACORE-X; Biacore Inc., Piscataway, NJ) and data were analyzed using BIAevaluation Software (Biacore Inc., v4.1). Analysis was performed with a 1:1 (Langmuir) Binding Model and Fit, using all five concentration points for each sample run to determine the best fit (lowest χ^2 value). The KDvalue was calculated using the formula KD=kd1/ka1, where kd1 is the dissociation rate-constant and ka1 is the association-rate constant.

[8] = biological target: T2, Trop-2 (Homo sapiens, UniProt P09758); experiment: In vitro cell binding, multiple cell lines; parameters: endogenous in cells; host or cells: human cancer cell lines (ATCC)
T2 sequence (P09758 27-323): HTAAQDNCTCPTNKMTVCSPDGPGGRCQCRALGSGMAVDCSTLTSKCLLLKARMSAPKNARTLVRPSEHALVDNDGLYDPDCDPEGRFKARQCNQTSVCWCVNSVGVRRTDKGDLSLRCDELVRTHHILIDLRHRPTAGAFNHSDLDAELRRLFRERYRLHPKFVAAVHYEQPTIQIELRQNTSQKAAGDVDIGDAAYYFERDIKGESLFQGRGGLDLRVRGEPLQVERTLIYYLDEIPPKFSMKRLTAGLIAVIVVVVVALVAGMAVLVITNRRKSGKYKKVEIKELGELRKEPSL
Experimental: In Vitro Cell Binding—LumiGLO Chemiluminescent Substrate System (KPL, Gaithersberg, MD) was used to detect antibody binding to cells. Briefly, cells were plated into a 96 black-well, flat-clear-bottom plate overnight. Antibodies were serially diluted 1:2 and added in triplicate, yielding a concentration range from 0.03 to 66.7 nM. After incubating for 1 h at 4° C., the media was removed and the cells washed with fresh cold media followed by the addition of a 1:20,000 dilution of goat-antihuman horseradish peroxidase-conjugated secondary antibody (Jackson Immunoresearch, West Grove, PA) for 1 h at 4° C. The plates were again washed before the addition of the LumiGLO reagent. Plates were read for luminescence using an Envision plate reader (Perkin Elmer, Boston MA). Data were analyzed by non-linear regression to determine the equilibrium dissociation constant (KD). Statistical comparisons of KD-values were made with Prism GraphPad Software (v4.03) (Advanced Graphics Software, Inc.; Encinitas, CA) using an F-Test on the best-fit curves for the data. Significance was set at P<0.05.

[9] = biological target: T3, rhTrop-2/TACSTD2 (Homo sapiens, UniProt P09758); experiment: Surface plasmon resonance (BIACORE), Trop-2; assay type: binding; conditions: for Kd: low-density Trop-2 chip, three independent runs, read-out: binding affinity (KD)
T3 construct: purchased Sino Biological, Inc
T3 sequence (P09758 27-323): T2 sequence (P09758 27-323)
Text: as §1

[10] = system: p21^Waf1/Cip1 and p53; experiment: Signaling events (p21Waf1/Cip1, p53) in Calu-3; assay type: cell-based, human
Text: Our initial studies examined the expression of 2 proteins involved in early signaling events (p21^Waf1/Cip1 and p53) and 1 late apoptotic event [cleavage of poly-ADP-ribose polymerase (PARP)] in vitro (not shown).

[11] = CDC activity; assay type: cell-based

Substance | MRT of carrier hRS7 antibody [1] | alpha half-life of hRS7 IgG ([1]; iv, 200 ug) | beta half-life of hRS7 IgG ([1]; iv, 200 ug) | half-life of intact conjugate ([1]; iv, 200 ug) | induction of γH2AX vs non-targeting control ADC ([2]; BxPC-3, 30 min exposure) | Mean Fluorescence Intensity, γH2AX ([2]; BxPC-3, 20 μg/ml for 30 min) | specific lysis (ADCC) [3] | tumor growth vs untreated and hA20-CL2A-SN-38 ([4]; 0.4 mg/kg SN-38 twice weekly x 4 weeks) | tumor-free mice after 20 weeks ([5]; 75 μCi 90Y-hPAM4 level, ADC alone, or their combination, n=10) | tumor volume (TV) [6] | tolerability, body weight loss ([6]; in all murine studies) | Kd [7] | KD [8] | improvement in KD vs naked hRS7 ([9]; BIACORE) | Kd [9] | exposure time at which p53 upregulation is evident [10] | CDC activity [11] | Percent Positive, γH2AX ([2]; BxPC-3, 20 μg/ml for 30 min, untreated 18.8 ± 6.3) | tumor volume (TV) ([4]; 0.4 mg/kg, q4dx8, 28-day treatment period) | anti-tumor activity of unconjugated antibodies ([5]; given alone)
IMMU-132 | ~300 h | approximately 3 h | ~200 h | 11 h | greater than two-fold induction | 5349 ± 234 | no difference between hRS7-NEM and sacituzumab govitecan | significantly inhibited tumor growth | 1 of 10 | 0.36±0.25 cm^3 | well tolerated in terms of body weight loss | 0.192 ± 0.0476 µM | sub-nanomolar range | 2 fold | 0.00026 ± 0.00014 µM | ≤ 24 h | no CDC activity | – | – | –
hRS7 IgG | – | approximately 3 h | ~200 h | – | – | 2297 ± 18 | 8.5% | – | – | 1.30±1.08 cm^3 | – | 0.0924 ± 0.0057 µM | sub-nanomolar range | – | 0.00051 ± 4e-05 µM | 48 h | no CDC activity | 13.0 ± 0.6% | 1.77±0.93 cm^3 | Neither unconjugated hPAM4 nor hRS7 antibodies had anti-tumor activity
